These results are taken from patent US11724980B2, “Quinones having high capacity retention for use as electrolytes in aqueous redox flow batteries” (President and Fellows of Harvard College, priority 2018, dated 2023).

The term solubility denotes the dissolved amount per volume that the medium holds.

In brackets after ≈: the same amount, converted by molar mass. Read-outs that look alike come from different tables or passages of the source.

A short description of data set [1]: Unbalanced compositionally-symmetric cell cycling. The settings on record: for temporal fade rate: 0.10 M, pH 12 (0.01 M KOH). The protocol:
As a direct probe of the effect of O-alkylation of anthraquinone on its chemical stability, 2,6-DBEAQ was cycled potentiostatically in a volumetrically unbalanced compositionally-symmetric cell configuration.
Potentiostatic symmetric cell cycling was performed according to a reported procedure^8 in order to assess the temporal chemical stability of DBEAQ, independent of any variations in apparent capacity as a result of changes to membrane resistance, and in a configuration where there is negligible water or reactant crossover due to the same DBEAQ concentration being used in both electrolytes. […] 5 mL of the resulting electrolyte was used as the capacity-limiting side of a volumetrically unbalanced compositionally-symmetric cell, while the remaining 10 mL was used as the non-capacity-limiting side, i.e., with twice the nominal capacity of the capacity-limiting side. […].
The cycling stability of the DPPEAQ electrolyte was also studied by a previously published symmetric cell method.^24 Although the oxidized form of DPPEAQ is readily soluble at pH 9, proton-coupled electron transfer raises the pH of the electrolyte when it is reduced. Such pH fluctuations can produce misleading results in symmetric cell testing unless the starting pH is above the cutoff point for proton-coupled electron transfer.

Data set [2] is described as follows: physchem. It is filed as physicochemical. Conditions: for solubility: thermodynamic from solid. The protocol:
Solubility limits of all DBEAQ isomers were measured in their oxidized forms by adding the potassium salt of DBEAQ (prepared by reacting DBEAQ with potassium hydroxide in water) until no further solid could be dissolved. After filtering the mixture through a PTFE 0.45 μm syringe filter, a saturated solution of DBEAQ in KOH was obtained. The saturated solution was then diluted by a known amount, and the concentration was evaluated by UV-Vis (Ocean Optics Flame-S Spectrometer Assembly) at 280 and 364 nm. […]
The solubility limit of DPPEAQ was measured in the oxidized form by adding the potassium salt of DPPEAQ (prepared by reacting DPPEAQ with potassium hydroxide in water) until no further solid could be dissolved. The mixture was adjusted to pH 9. After filtering the mixture through a PTFE 0.45 μm syringe filter, a saturated solution of DPPEAQ at pH 9 was obtained. The saturated solution was then diluted by a known amount while maintaining a pH of 9, and the concentration was evaluated by UV-Vis (Agilent Cary 60 spectrophotometer). The concentration was calculated according to a pre-calibrated absorbance-concentration curve of known concentrations of DPPEAQ at pH 9.

The conditions of data set [3]: cited from earlier work.
The conditions of data set [4]: previous study (ref 3/17); cited from earlier work.
The conditions of data set [5]: cited from earlier work. This is another data set of the same source.
Data set [6] can be described thus: CV simulation as two one-electron reductions. It is filed as physicochemical. Conditions: same AQ:AQ2− ratio, from E1-E2 separations. The protocol:
FIG. 6. Capacitance-corrected CV of 5 mM 2,6-DBEAQ in 1 M KOH (solid grey line). The dashed red line represents the simulated total current arising from two successive one-electron reductions with reduction potentials of −0.517 and −0.511 V vs. SHE, according to the procedure outlined in a previous publication.^1 Each simulated reduction has a rate constant ko=7×10^−3 cm/s and α=0.5.
A first CV experiment was performed in which 2,6-DBEAQ was dissolved in pH 14 KOH solution at a concentration of 5 mM. CV measurements were plotted in FIG. 5A and include results for the isomers of 2,6-DBEAQ.
Following our previous study on 2,6-DHAQ^17 and literature reports^1,18 on quinone electrochemistry in the absence of proton donors, we simulated the CV of 2,6-DBEAQ as representing two reversible electron transfer steps at two different potentials E1 and E2. The separation between simulated redox potentials for the first (E1) and second (E2) electron reductions for 2,6-DBEAQ is considerably narrower than the corresponding peak separation for 2,6-DHAQ^17 (6 mV vs. 60 mV).
The pH dependence of the proton-coupled electron transfer (POET) redox reaction for a generalized anthraquinone (AQ) is often visualized by the nine-membered square scheme (FIG. 7). The horizontal direction indicates electron transfer (ET), and the vertical direction indicates proton transfer (PT or protonation). Under strongly alkaline conditions, where the pH is higher than the second pKa (pKa2) of the reduced AQ (AQ^2−), no protonation of the semiquinone anion will take place, and reduction proceeds via two ET steps, from AQ to a semiquinone (AQ-^●) at E1, and from AQ-^● to AQ^2− at E2 which is typically <E1. Depending on the value of E1-E2, the mechanism of AQ reduction in alkaline conditions can either be a concerted one-step, two-electron process or two single-electron processes. […]

For data set [7] the following is noted: pH 14 KOH, literature (ref 3); cited from earlier work.
The nature of data set [8]: physchem. It is filed as physicochemical. The settings on record: 0.1 M. The protocol:
FIGS. 24A-24D. Comparison of the stability of DPPEAQ with respect to alkyl chain cleavage to that of 2,6-DBEAQ at pH 14. ^1H NMR spectra (500 MHz, 10 mM NaCH3SO3 internal standard, δ 2.6 ppm) of (A) DPPEAQ at pH 14; (B) DPPEAQ at pH 14, treated for 5.5 days at 95° C. and 0.1 M concentration; (C) 2,6-DBEAQ at pH 14; (D) 2,6-DBEAQ at pH 14, treated for 5.5 days at 95° C. and 0.1 M concentration. […] The relative integrals and splitting of the peaks in the spectra of DPPEAQ after treatment are consistent with the products of (3-hydroxypropyl)phosphonate cleavage. Samples of DPPEAQ at 0.1 M concentration and pH 14 in both the oxidized and reduced form were stored in FEP bottles and heated in an oven at 65° C. for 2 weeks. The extent of decomposition was determined by ^1H NMR, with peak integrals measured relative to an internal standard of NaCH3SO3 prepared at 10 mM concentration in D2O.
By performing elevated temperature chemical stability studies, we have identified that the cleavage of γ-hydroxybutyrate is involved in the decomposition of the oxidized form of 2,6-DBEAQ (FIGS. 10A-10C and FIGS. 11A-11D), and we have characterized the time course of γ-hydroxybutyrate cleavage at pH 12 and pH 14 and at 0.1 M and 0.5 M concentration (FIG. 12 and FIGS. 13A-13C). […]; these observations are consistent with long redox flow battery lifetime at typical operating cell conditions.
We designed an analogue of 2,6-DBEAQ but with phosphonate-terminated functional groups, DPPEAQ, appearing to deliver both of these desired outcomes.
The differing relative stabilities of DPPEAQ and 2,6-DBEAQ at pH 12 (at 95° C. and 0.1 M concentration), in contrast to the similar extent of their observed decomposition at pH 14, may be due to a competition between multiple decomposition mechanisms that vary in a pH-dependent manner. The concentration of hydroxide ions at pH 14 is tenfold higher than the concentration of either molecule at 0.1 M, as opposed to tenfold lower at pH 12. In particular, we propose a hydroxide-mediated nucleophilic substitution reaction (SNAr or SN2) that dominates the decomposition of both molecules at pH 14. However, at a lower pH of 12, an intramolecular reaction with carboxylate acting as the nucleophile dominates in the decomposition of 2,6-DBEAQ, while no analogous intramolecular reaction of DPPEAQ at pH 12 can take place due to much weaker nucleophilicity of bulked phosphonate compared with carboxylate. The difference in the dominant mechanisms of 2,6-DBEAQ decomposition at pH 12 and 14 that we are proposing is also consistent with the observation that the initial rate of degradation is not 100-fold slower at pH 12 relative to pH 14. […] In addition, the operability at lower pH serves to decrease the corrosion of battery systems and enable the use of less expensive materials.

Data set [9] can be described thus: Rotating disk electrode study with Levich analysis. It is filed as physicochemical. The settings on record: 5 mM in 1 M KOH, Levich plot. The protocol: Glassy carbon was used as the working electrode for all three-electrode CV tests. RDE experiments were conducted using a Pine Instruments Modulated Speed Rotator AFMSRCE equipped with a 5 mm diameter glassy carbon working electrode, a Ag/AgCl reference electrode (BASi, pre-soaked in 3 M NaCl solution), and a graphite counter electrode. The electrode was rotated at a specific speed while the voltage was linearly swept from −0.4 to −0.11 V vs. Ag/AgCl (FIG. 4A). […]. RDE experiments were conducted using a Pine Instruments Modulated Speed Rotator AFMSRCE equipped with a 5 mm diameter glassy carbon working electrode, a Ag/AgCl reference electrode (BASi, pre-soaked in a 3 M KCl solution), and a graphite counter electrode. […]

Data set [10] in a line: Cyclic voltammetry on glassy carbon electrode. It is filed as physicochemical. The protocol:
Glassy carbon was used as the working electrode for all three-electrode CV tests. RDE experiments were conducted using a Pine Instruments Modulated Speed Rotator AFMSRCE equipped with a 5 mm diameter glassy carbon working electrode, a Ag/AgCl reference electrode (BASi, pre-soaked in 3 M NaCl solution), and a graphite counter electrode. The electrode was rotated at a specific speed while the voltage was linearly swept from −0.4 to −0.11 V vs. Ag/AgCl (FIG. 4A). […].
A second CV experiment was performed in which 2,6-DBEAQ was dissolved in pH 14 KOH solution at a concentration of 2 mM. CV measurements were plotted in FIG. 4C. The standard equilibrium potential was determined to be −0.49 V vs. SHE. The separation between the peaks in the CV curves was 42 mV, indicating fairly rapid and reversible electrochemical reactions at the surface of the electrodes.

In the case of `O=C(O)CCCOc1ccc2c(c1OCCCC(=O)O)C(=O)c1ccccc1C2=O` [1,2-DBEAQ], the temporal fade rate result in [1] was “greater than 0.1 %/day”. In addition, the “Solubility (M) at pH 14 (pH 12)” value in the data set “physchem [2]” is reported as 0.9 M.

Molecule `O=C(O)CCCOc1cccc2c1C(=O)c1c(OCCCC(=O)O)cccc1C2=O` [1,8-DBEAQ] gave a temporal fade rate in [1] above 10 %/day. The “Solubility (M) at pH 14 (pH 12)” value in “physchem [2]” was 0.75 M.

With `O=C1c2ccc(O)cc2C(=O)c2ccc(O)cc21` [2,6-DHAQ, 2,6-dihydroxyanthraquinone], in data set [3] (comparison value for 2,6-DHAQ), the reduction potential is recorded as −680 mV vs. SHE. Besides, the redox peak separation in data set [3] (literature (ref 3)) is recorded as around 90 mV. Further, the “temporal capacity fade rate” value in [1] (pH 14 (1 M KOH), 0.10 M (2,6-DBEAQ also 0.65 M)) stood at 5 %/day. For the same molecule, the E1-E2 separation in data set [4] is 60 mV. The capacity fade rate in data set [5] (reported (refs 21,22)) was 5 %/day. The solubility in the data set “physchem [2]” (pH 12, aqueous buffer) turned out to be 100 mM (≈ 24 mg/mL); in the data set “physchem [2]” (pH 14, aqueous buffer), 60 mM (≈ 14.4 mg/mL). For the same molecule, the “Keq_comp for semiquinone formation, times higher than for 2,6-DBEAQ” value in [6] was 2.83 times. Further, in data set [7], the room temperature solubility was 600 mM.

For the molecule `O=C1c2ccc(S(=O)(=O)O)cc2C(=O)c2ccc(S(=O)(=O)O)cc21` [AQDS, 9,10-anthraquinone-2,6-disulfonate], the temporal fade rate in data set [5] (lowest previously reported quinone-based electrolyte (refs 10,11)) is given as 0.1-0.2 %/day.

As for `O=C1c2ccc(OCCCP(=O)(O)O)cc2C(=O)c2ccc(OCCCP(=O)(O)O)cc21` [DPPEAQ, (((9,10-dioxo-9,10-dihydroanthracene-2,6-diyl)bis(oxy))bis(propane-3,1-diyl))bis(phosphonic acid)], the capacity fade in data set [1] (0.1 M, pH 13, cycled 6 days) is recorded as 0.02 %/day. The decomposition entry in “physchem [8]” (pH 9, 6 days at 95° C.) is recorded as “no significant decomposition”; in “physchem [8]” (pH 12, 6 days at 95° C.) it was “no significant decomposition”; in the data set “physchem [8]” (pH 14, 5.5 days at 95° C.), 45%. Also, the “chemical stability of the reduced form” value in “physchem [8]” (pH 14, 12 days at 65° C.) was “robust chemical stability”. Also, in data set [9], the “diffusion coefficient for the oxidized form” value was 1.37×10^−6 cm^2/s. The solubility in the data set “physchem [2]” (pH 9, aqueous buffer, pH 9, read-out: solubility of the oxidized form) was found to be 750 mM (≈ 363 mg/mL). Also, in data set [10] (Pourbaix diagram), the “pH above which the potential is pH-independent” value is reported as around 12.4. Moreover, the “redox potential (E1/2)” value was −0.39 V vs. SHE in data set [10] (buffered pH 9), −0.47 V vs. SHE in [10] (buffered pH 12), −0.47 V vs. SHE in data set [10] (pH 9 unbuffered aqueous solution) and −0.49 V vs. SHE in data set [10] (pH 12 unbuffered aqueous solution). In [10] (fit to data below pH 12), this molecule displayed a Pourbaix diagram slope of −30 mV/pH.
